Article PMC11796312, “Multifunctional, Fluorene‐Based Modulator of Cholinergic and GABAergic Neurotransmission as a Novel Drug Candidate for Palliative Treatment of Alzheimer's Disease” (Angewandte Chemie (International Ed. in English), 2024)
Entries after “also recorded” stand apart in the source; their conditions may differ.

Columns and labels:
SIM-A9 cells = experiment: Intracellular RONS, DCFH-DA probe, SIM-A9; type: cell-based, mouse
mice = experiment: Four-plate test (FPT); type: in vivo; details: 0.1, 1 and 10 mg/kg i.p., vs control
Description: Animals and housing conditions
In all pharmacodynamic in vivo experiments, except for the Barnes maze (BM) task, adult male Albino Swiss (CD-1) mice weighing between 18 and 22 g and purchased from the Animal Breeding Farm of the Faculty of Pharmacy, Jagiellonian University Medical College were used. In BM task, C57BL/6J mice of the same weight (Animalab, Poland) were used.
Animals were housed in cages (10 mice per cage) at a constant temperature of 22 ± 2 °C, humidity of 55 ± 10%, and a light/dark (12:12) cycle (lights on at 7 AM). Before the experiments, the animals had unlimited access to food and water. […]
Briefly, mice were individually placed in a glass cylinder (25 cm high, 10 cm in diameter) containing 11 cm of water maintained at 23–25 °C and were left therein for 6 min. […] The total duration of immobility was measured during the final 4 min of a 6-min test session. […]
The four-plate apparatus (FPT; Bioseb, France) consists of a cage (25 × 18 × 16 cm) that is floored with four rectangular metal plates (11 × 8 cm). […] The number of punished crossings was counted […]
of the closed arms. […] The following parameters were measured in this test: time spent in open arms of the EPM device and the number of entries to open arms. […]

[1] = Acute toxicity study i.p. (MTD, biochemistry, histopathology); type: in vivo, mice; details: both sexes, ICR-CD1, mouse, in vivo, ip, male and female mice; read-out: maximal tolerated dose (MTD)
Description: Toxicology and pharmacokinetic in vivo study
ICR-CD1 mice weighing 20–25 g were purchased from Velaz (Prague, Czech Republic).
They were kept in an air-conditioned room with the light from 07:00 to 19:00 hours and were allowed access to standard food and tap water ad libitum. The mice were divided into groups […]
Ethical approval statement
The experimental animals were handled under the supervision of the Ethics Committee of the […]
706288/2023-1457) and the treatment of animals was in full accordance with ethical standards laid down in respective Czech and EU regulations.
Design of in vivo experiments
Acute toxicity study – Maximal tolerated dose, biochemical analysis, and histopathologic […]
Mice (ICR-CD1, Velaz, Prague, Czech Republic) were randomly assigned to the experimental groups of two males and two females per one applied dose of 6. 6 was administered intraperitoneally (i.p., 0.1 mL/10 g of animal weight; 1% Tween 80). Several doses were administered to identify the toxic profile of tested compounds and establish the Maximal Tolerated Dose (MTD, i.p.). Treated animals were intensively observed for signs of toxicity, such as respiratory, cardiovascular, and nervous system disability. Weight loss or reduced food consumption was assessed according to the FELASA classification[39] in the first two hours and then periodically for the subsequent 46 hours. The toxicity signs were classified according to a previously published study.[40]
All animals surviving the 48 hours were deeply euthanized by CO2 and subjected to basic macroscopic necropsy. The blood was collected for biochemical analysis, and selected organs (kidney and liver) were collected for histopathologic examination.
Venous blood was collected into heparinized tubes (Scanlab Systems, Prague, Czech Republic). Plasma was subsequently separated (3,000 × g for 10 min, 4 °C) using centrifuge U-320R (Boeco, Hamburg, Germany). The concentration of urea and creatinine and the activity of alanine aminotransferase (ALT), aspartate aminotransferase (AST), alkaline […]
phosphatase (ALP), amylase, and lactate dehydrogenase (LDH) were measured in the accredited biochemical laboratory of the Department of Clinical Biochemistry and Diagnostics, University Hospital, Hradec Kralove, Czech Republic. Statistical data analysis was performed through IBM SPSS Statistics version 26 (IBM, Armonk, NY, USA) using the Kolmogorov-Smirnov and Shapiro-Wilk tests to test data normality. Due to normally distributed data, the Student´s t-test was used to assess the differences compared with the control group (p ≤ 0.05).
Samples of the liver and kidney were used for standard histopathological examination. Organs were fixed with 10% neutral buffered formalin (Bamed s.r.o., Ceske Budejovice, Czech Republic), histologically processed, and stained with hematoxylin and eosin (both Merck) according to Pejchal et al.[41] The histopathological changes were evaluated using a BX-51 microscope (Olympus, Tokyo, Japan). […]
The time intervals
PK studies). The samples were centrifuged at 3,000 × g for 10 min (10 °C), and the plasma samples were stored at -80 °C until the HPLC analysis.

For `O[C@H](CNCC1CC1)[C@H](Cc1ccccc1)NC1c2ccccc2-c2ccccc21` [Compound 6], the “increase in intracellular RONS” value (SIM-A9 cells; IC50, ½ IC50, ¼ IC50, 1, 4, 24 h) was “no significant increase”, the “intracellular RONS, times lower” value (SIM-A9 cells; conc. = IC50, 24 h) was 1.63 fold and the “number of punished crossings” value (mice) was “increased the number of punished crossings; also recorded: statistically significant increase in the number of punished crossings”. For the same molecule, the MTD at 48 h [1] was 10 mg/kg.
